The source of these data is PMC4077824, “Conserved Prosegment Residues Stabilize a Late-Stage Folding Transition State of Pepsin Independently of Ground States” (PLoS ONE, 2014).

The target of assay [1] is T1, refolded pepsin (Rp) (Sus scrofa, UniProt P00791).
T1 construct: Only the R13 and K36 side-chains of the PS form hydrogen bonds with the mature pepsin domain; purchased Sigma (St. Louis, MO, USA)
The following applies: ref [7]; cited from earlier work. The text has this:
(§1) Figure 1 Zymogen-derived proteins deviate from common trends in protein folding. (A) Comparison of the non- and PS-catalyzed folding of αLP [8], SGPB [5] and pepsin [7]. (B) Relation between topology and folding rate for a number of two- and three-state folding proteins (circles, data taken from, [21], [22]). The folding rate of αLP (squares), SGPB (triangles) and pepsin (stars) is accelerated to the value (hollow points) expected based on the topology, only when the PS is included. (C) Reaction scheme of pepsin PS-catalyzed folding. […] It seems likely that the PS has achieved this higher affinity for the TS via a concerted optimization of side-chain packing, hydrogen bonding and electrostatics, as evidenced by polar, hydrophobic and charged groups selectively stabilizing the TS ( Fig 3A ). Furthermore, this concerted optimization likely involves both non-native and strengthened native contacts, given the range of interactions involved. In the native fold [ ...

The target of another assay is T2, native pepsin (Np) (Sus scrofa, UniProt P00791).
T2 construct: Only the R13 and K36 side-chains of the PS form hydrogen bonds with the mature pepsin domain; purchased Sigma (St. Louis, MO, USA)
The settings on record: ref [7]; cited from earlier work.
From the text: as §1

The test system of assay [2] is pepsin (PS-Rp, PS-TS, PS-Np complexes). The following applies: ref [7]; cited from earlier work. The text has this: It seems likely that the PS has achieved this higher affinity for the TS via a concerted optimization of side-chain packing, hydrogen bonding and electrostatics, as evidenced by polar, hydrophobic and charged groups selectively stabilizing the TS ( Fig 3A ). Furthermore, this concerted optimization likely involves both non-native and strengthened native contacts, given the range of interactions involved. In the native fold [ ...

The target in assay [3] is T1, refolded pepsin (Rp). As to the kind of experiment: PS-catalyzed folding of Rp to Np (recovery of Np activity). It counts as biochemical, porcine. The settings on record: PS with Rp, without 100 mM NaCl, timescale of 0–2 hours; data not shown, and [7].

Where no end group is shown, it is not given here.

T1 sequence (P00791 60-385): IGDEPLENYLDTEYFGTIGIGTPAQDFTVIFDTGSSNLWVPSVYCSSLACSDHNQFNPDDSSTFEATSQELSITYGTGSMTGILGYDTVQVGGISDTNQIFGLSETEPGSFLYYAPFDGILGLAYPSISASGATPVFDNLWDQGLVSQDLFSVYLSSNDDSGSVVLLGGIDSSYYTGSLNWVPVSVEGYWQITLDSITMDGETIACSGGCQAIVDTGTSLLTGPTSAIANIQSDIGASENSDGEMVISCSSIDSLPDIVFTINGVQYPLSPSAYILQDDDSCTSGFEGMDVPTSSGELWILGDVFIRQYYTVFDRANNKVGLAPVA
T2 sequence (P00791 60-385): as above

For the sequence “LVKVPLVRKKSLRQNLIKNGKLKDFLKTHKHNPASKYFPEAAAL [WT]”, the “affinity for Rp” value on refolded pepsin (Rp) [1] is listed as “micromolar”. Further, at native pepsin (Np), the “affinity for Np” value was “nano-”. Moreover, the “affinity for folding TS” value in assay [2] was “picomolar affinity”. Besides, the “generation of protease activity without added NaCl” value at refolded pepsin (Rp) [3] was “no generation of protease activity was observed”.
